Target: T1, ALK2ca T283S (constitutively active ALK2) (Homo sapiens, UniProt Q04771, Q207D/T283S)
T1 sequence (Q04771 21-509 Q207D/T283S): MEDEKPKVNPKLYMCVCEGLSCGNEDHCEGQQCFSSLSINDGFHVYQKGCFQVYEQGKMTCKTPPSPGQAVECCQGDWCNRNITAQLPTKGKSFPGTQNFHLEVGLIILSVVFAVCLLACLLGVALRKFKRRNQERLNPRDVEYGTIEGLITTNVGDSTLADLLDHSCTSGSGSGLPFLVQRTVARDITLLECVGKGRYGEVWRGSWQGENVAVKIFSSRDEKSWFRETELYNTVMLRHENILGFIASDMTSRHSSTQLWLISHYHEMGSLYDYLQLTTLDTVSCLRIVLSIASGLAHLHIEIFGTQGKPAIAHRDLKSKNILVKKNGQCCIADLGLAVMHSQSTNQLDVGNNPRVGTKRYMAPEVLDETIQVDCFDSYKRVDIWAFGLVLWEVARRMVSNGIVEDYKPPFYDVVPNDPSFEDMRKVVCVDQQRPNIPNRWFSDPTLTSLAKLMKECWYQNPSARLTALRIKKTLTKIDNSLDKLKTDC
Assay: BRE2-luc luciferase reporter in NIH-3T3 cells expressing ALK2ca T283S
Format: cell-based

- EC50: 2500 nM
Structure (SMILES): NC(=O)c1ccc(-c2nc(-c3ccc4c(c3)OCO4)c(-c3ccccn3)[nH]2)cc1 [SB431542]
